Assays:
[1] = test system: HCT116 cells; assay: Measurement of cell growth inhibition (Cell Counting Kit-8, four days); conditions: Homo sapiens, HCT-116, 96 h, read-out: Cell growth-inhibiting activity (IC50, μM) Colon cancer HCT116, HCT116 colon cancer cell line, four days culture;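 further: cells exposed to a range of test concentrations at 37 °C in 5% CO2 for four days, then growth read as absorbance with Cell Counting Kit-8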
Method: Cells were maintained under conditions recommended by the provider of each cell line. Cells suspended in a medium were added to solutions containing various concentrations of the test substance, and the cells were cultured at 37° C. in a 5% CO2 incubator. Four days later, Cell Counting Kit-8 was added, and absorbance measurements were taken following the protocol included in the kit.

[2] = target: T1, Human HSP90 alpha (Homo sapiens, UniProt P07900); assay: Assay for the activity of inhibiting HSP90 enzyme (ATPase, malachite green); assay type: biochemical; conditions: purified human HSP90 alpha, 1 mM ATP added, 37° C. for two hours, OD655; read-out: Enzyme-inhibiting activity (IC50, μM) Human HSP90α
T1 construct: His tag (inferred from purification on a HisPrep FF column); made in house; host or cells: E. coli BL21 codon plus (Stratagene)
Method: Introduction of pETHuHSP90a into E. coli (BL21 codon plus; Stratagene) was followed by O/N incubation in the presence of 0.1 mM IPTG, and the collected E. coli cells were disrupted by ultrasonication in a Lysis buffer (50 mM Tris-HCl (pH8.0), 10 mM MgCl2, 0.1% Triton X-100, Protease inhibitor cocktail tablets (Roche Diagnostics)). The cell lysate solution was centrifuged (10,000 rpm×30 minutes), and the supernatant obtained after centrifugation was used as a crude extract. The crude extract was fractionated using HisPrep FF column and HiTrap Q column (Amersham) to prepare a purified enzyme solution.
An enzyme solution for assays was prepared by dilution of the purified enzyme solution using an assay buffer (50 mM Tris HCl pH7.6, 20 mM KCl, 5 mM MgCl2).
10 μL each of various concentrations of the test substances (10% DMSO solution) was added to each well, and for the positive control wells, 10 μL of 10% DMSO was added. 10 μL of 10% DMSO was also added to the negative control well.
10 μL of 1 mM ATP was added to all of the wells, and the reaction was carried out at 37° C. for two hours.

| Compound | IC50 [1] [µM] | IC50 [2] [µM] |
| --- | --- | --- |
| Cc1cc(C)c2cc1C(=O)N(C)CCCNC(=O)CCSc1cc-2nc(N)n1 [Compound 3, 4-amino-15,18,20-trimethyl-7-thia-3,5,11,15-tetraazatricyclo[15.3.1.1^2,6]docosa-1(20),2(22),3,5,17(21),18-hexane-10,16-dione] | 0.92 | 1.6 |
| Cc1cc(C)c2cc1C(=O)NCCNC(=O)CCCSc1cc-2nc(N)n1 [Compound 4, 4-amino-18,20-dimethyl-7-thia-3,5,12,15-tetraazatricyclo[15.3.1.1^2,6]docosa-1(20),2(22),3,5,17(21),18-hexaene-11,16-dione] |  | 1 |
| Cc1cc(C)c2cc1C(=O)NCCCCNC(=O)CCCSc1cc-2nc(N)n1 [Compound 5, 4-amino-20,22-dimethyl-7-thia-3,5,12,17-tetraazatricyclo[17.3.1.1^2,6]tetracosa-1(22),2(24),3,5,19(23),20-hexane-11,18-dione] | 0.5 | 1 |
| Cc1cc(C)c2cc1C(=O)NCCCCCNC(=O)C(C)CSc1cc-2nc(N)n1 (centres unmarked) [Compound 7, 4-amino-9,20,22-trimethyl-7-thia-3,5,11,17-tetraazatricyclo[17.3.1.1^2,6]tetracosa-1(22),2(24),3,5,19(23),20-hexaene-10,18-dione] | 0.4 | 1.6 |
| Nc1nc2cc(n1)-c1cc(c(Cl)cc1Cl)C(=O)NCCCNC(=O)CCS2 [Compound 8, 4-amino-18,20-dichloro-7-thia-3,5,11,15-tetraazatricyclo[15.3.1.1^2,6]docosa-1(20),2(22),3,5,17(21),18-hexaene-10,16-dione] | 0.21 | 2 |
| COc1cc(C)c2cc1C(=O)NCCCC(=O)NCCSc1cc-2nc(N)n1 [Compound 9, 4-amino-18-methoxy-20-methyl-7-thia-3,5,10,15-tetraazatricyclo[15.3.1.1^2,6]docosa-1(20),2(22),3,5,17(21),18-hexaene-11,16-dione] | > 10 | 1.9 |
| COc1cc(C)c2cc1C(=O)N(C)CCCC(=O)NCCSc1cc-2nc(N)n1 [Compound 10, 4-amino-18-methoxy-15,20-dimethyl-7-thia-3,5,10,15-tetraazatricyclo[15.3.1.1^2,6]docosa-1(20),2(22),3,5,17(21),18-hexaene-11,16-dione] | > 10 | 1.1 |
| Cc1cc(C)c2cc1C(=O)NCCCC(=O)NCCSc1cc-2nc(N)n1 [Compound 11, 4-amino-18,20-dimethyl-7-thia-3,5,10,15-tetraazatricyclo[15.3.1.1^2,6]docosa-1(20),2(22),3,5,17(21),18-hexaene-11,16-dione] |  | 1.2 |
| Cc1cc(C)c2cc1C(=O)NCCC(=O)NCCSc1cc-2nc(N)n1 [Compound 12, 4-amino-17,19-dimethyl-7-thia-3,5,10,14-tetraazatricyclo[14.3.1.1^2,6]henicosa-1(19),2(21),3,5,16(20),17-hexaene-11,15-dione] | 0.72 | 1.3 |
| Cc1cc(C)c2cc1C(=O)N(C)CCCC(=O)NCCSc1cc-2nc(N)n1 [Compound 13, 4-amino-15,18,20-trimethyl-7-thia-3,5,10,15-tetraazatricyclo[15.3.1.1^2,6]docosa-1(20),2(22),3,5,17(21),18-hexaene-11,16-dione] | 4.4 | 1.2 |
| Cc1cc(C)c2cc1C(=O)NCCCCCC(=O)NCCSc1cc-2nc(N)n1 [Compound 14, 4-amino-20,22-dimethyl-7-thia-3,5,10,17-tetraazatricyclo[17.3.1.1^2,6]tetracosa-1(22),2(24),3,5,19(23),20-hexaene-11,18-dione] | 0.15 | 0.8 |
| Nc1nc2cc(n1)-c1cc(c(Cl)cc1Cl)C(=O)NCCCC(=O)NCCS2 [Compound 15, 4-amino-18,20-dichloro-7-thia-3,5,10,15-tetraazatricyclo[15.3.1.1^2,6]docosa-1(20),2(22),3,5,17(21),18-hexaene-11,16-dione] | 0.14 | 1.6 |
| COc1cc(C)c2cc1C(=O)NCCCOc1cccc(c1)Sc1cc-2nc(N)n1 [Compound 16, 4-amino-20-methoxy-22-methyl-13-oxa-7-thia-3,5,17-triazatricyclo[17.3.1.1^2,6.1^8,12]pentacosa-1(22),2(24),3,5,8(25),9,11,19(23),20-nonaen-18-one] |  | 1.6 |
| CCOc1cc(C)c2cc1C(=O)NCCCOc1cccc(c1)Sc1cc-2nc(N)n1 [Compound 17, 4-amino-20-ethoxy-22-methyl-13-oxa-7-thia-3,5,17-triazatricyclo[17.3.1.1^2,6.1^8,12]pentacosa-1(22),2(24),3,5,8(25),9,11,19(23),20-nonaen-18-one] |  | 1.3 |
| Nc1nc2cc(n1)-c1cc(c(Cl)cc1Cl)OCCCCOc1cccc(c1)S2 [Compound 21, 4-amino-20,22-dichloro-13,18-dioxa-7-thia-3,5-diazatricyclo[17.3.1.1^2,6.1^8,12]pentacosa-1(23),2,4,6(24),8,10,12(25),19,21-nonaene] |  | 1.8 |
| Nc1nc2cc(n1)-c1cc(c(Cl)cc1Cl)OCCCCCOc1cccc(c1)S2 [Compound 22, 4-amino-21,23-dichloro-13,19-dioxa-7-thia-3,5-diazatricyclo[18.3.1.1^2,6.1^8,12]hexacosa-1(24),2,4,6(24),8,10,12(26),20,22-nonaene] | 2.4 | 1.7 |
| Nc1nc2cc(n1)-c1cc(c(Cl)cc1Cl)OCCOCCOc1cccc(c1)S2 [Compound 23, 21,23-dichloro-13,16,19-trioxa-7-thia-3,5-diazatricyclo[18.3.1.1^2,6.1^8,12]hexacosa-1(23),2(25),3,5,8(26),9,11,20(24),21-nonaen-4-ylamine] | 1.4 | 1.1 |
| Nc1nc2nc(n1)-c1cc(c(Cl)cc1Cl)OCCCCOc1cccc(c1)S2 [Compound 26, 20,22-dichloro-13,18-dioxa-7-thia-3,5,24-triazatricyclo[17.3.1.1^2,6.1^8,12]pentacosa-1(22),2(24),3,5,8(25),9,11,19(23),20-nonaen-4-ylamine] | 7.4 | 3.3 |
| Nc1nc2nc(n1)-c1cc(c(Cl)cc1Cl)OCCOCCOc1cccc(c1)S2 [Compound 27, 21,23-dichloro-13,16,19-trioxa-7-thia-3,5,25-triazatricyclo[18.3.1.1^2,6.1^8,12]hexacosa-1(23),2(25),3,5,8(25),9,11,20(24),21-nonaen-4-ylamine] | 1.4 | 2.1 |
| Nc1nc2cc(n1)-c1cc(c(Cl)cc1Cl)C(=O)NCCCCCC(=O)NCCS2 [Compound 28, 4-amino-20,22-dichloro-7-thia-3,5,10,17-tetraazatricyclo[17.3.1.1^2,6]tetracosa-1(22),2(24),3,5,19(23),20-hexaene-11,18-dione] | 0.2 | 1.4 |
| Cc1cc(C)c2cc1C(=O)NCCOCCNC(=O)CCSc1cc-2nc(N)n1 [Compound 29, 4-amino-20,22-dimethyl-14-oxa-7-thia-3,5,11,17-tetraazatricyclo[17.3.1.1^2,6]tetracosa-1(22),2(24),3,5,19(23),20-hexaene-10,18-dione] | 0.3 | 1.7 |
| Cc1cc(C)c2cc1C(=O)NCCN(C)CCNC(=O)CCSc1cc-2nc(N)n1 [Compound 30, 4-amino-14,20,22-trimethyl-7-thia-3,5,11,14,17-pentaazatricyclo[17.3.1.1^2,6]tetracosa-1(22),2(24),3,5,19(23),20-hexaene-10,18-dione] | 0.5 | 1.8 |
| Cc1cc(C)c2cc1C(=O)NC[C@@H](O)CNC(=O)CCSc1cc-2nc(N)n1 [Compound 31, (S)-4-amino-13-hydroxy-18,20-dimethyl-7-thia-3,5,11,15-tetraazatricyclo[15.3.1.1^2,6]docosa-1(20),2(22),3,5,17(21),18-hexaene-10,16-dione] | 1.3 | 0.8 |
| Cc1cc(C)c2cc1C(=O)NCCCN(C)C(=O)CCSc1cc-2nc(N)n1 [Compound 32, 4-amino-11,18,20-trimethyl-7-thia-3,5,11,15-tetraazatricyclo[15.3.1.1^2,6]docosa-1(20),2,4,6(22),17(21),18-hexaene-10,16-dione] | 0.4 | 0.5 |
| Cc1cc(C)c2cc1C(=O)NCCCN(CCO)C(=O)CCSc1cc-2nc(N)n1 [Compound 34, 4-amino-11-(2-hydroxyethyl)-18,20-dimethyl-7-thia-3,5,11,15-tetraazatricyclo[15.3.1.1^2,6]docosa-1(20),2,4,6(22),17(21),18-hexaene-10,16-dione] | 1.1 | 2.8 |
| Cc1cc(C)c2cc1C(=O)NCCCN(CCN1CCOCC1)C(=O)CCSc1cc-2nc(N)n1 [Compound 36, 4-amino-18,20-dimethyl-11-(2-morpholin-4-ylethyl)-7-thia-3,5,11,15-tetraazatricyclo[15.3.1.1^2,6]docosa-1(20),2,4,6(22),17(21),18-hexaene-10,16-dione] | 1.8 | 0.7 |

Source: patent publication US8362236B2, “Macrocyclic compound” (Chugai Seiyaku Kabushiki Kaisha, priority 2007, dated 2013)
